Source: patent publication US20120035183A1, “Cancer Treatment Method” (priority 2008, published 2012)

How the values were obtained:
[1] = system: LL1-BT-474-J4 (J4) breast cell clone; assay: CellTiter-Glo cell growth inhibition assay, LL1-BT-474-J4; type: cell-based; details: for sensitivity of the cell line to the agent (in words): LL1-BT-474-J4; for IC50: 72 h
[2] = system: JIMT-1 breast tumor cell line; assay: CellTiter-Glo cell growth inhibition assay, JIMT-1; type: cell-based; details: for IC50: Homo sapiens, JIMT-1, 72 h, JIMT1, breast, basal, HER2+, 3 days
Procedure: (§1) Breast tumor cell lines, BT-474, SK-Br-3, MDA-MB-453, MDA-MB-231 and T47D and head and neck squamous cell carcinoma line, SCC15 were purchased from the American Type Culture Collection.
(§2) BT-474, SK-Br-3, JimT-1, MDA-MB-453, MDA-MB-231 and T47D and SCC15 were cultured in a humidified incubator at 37° C. in 95% air, 5% CO2 in the RPMI 1640 containing 10% fetal bovine serum (FBS) media.
(§3) Cell growth inhibition was determined via CellTiter-Glo cell viability assays. Cells were seeded in a 96-well tissue culture plate (NUNC 136102) with the following plating densities in their respective media at 1000 or 2000 cells/well dependent on cell growth rate. […] The cells were incubated in the presence of the compounds for 3 days. ATP levels were determined by adding Cell Titer Glo® (Promega), incubating for 20 minutes then a luminescent signal was read on the SpectraMax M5 plate with a 0.5 sec integration time. Cell growth was calculated relative to vehicle (DMSO) treated control wells. […] When the CI value was between 0.9 and 1.10, the combination of the two agents was deemed additive. Combination Index values less than 0.9 were considered indicative of synergy. Combination Index values>1.10 indicated antagonism.

[3] = system: SK-BR-3 breast tumor cell line; assay: CellTiter-Glo cell growth inhibition assay, SK-BR-3; type: cell-based; details: Homo sapiens, 72 h, luminal, HER2+, 3 days
Procedure: as §1, §2, §3

[4] = system: BT-474 breast tumor cell line; assay: CellTiter-Glo cell growth inhibition assay, BT-474; type: cell-based; details: for IC50: Homo sapiens, BT-474, 72 h, BT474, breast, luminal, HER2+, 3 days
Procedure: as §1, §2, §3

[5] = system: MDA-MB-453 breast tumor cell line; assay: CellTiter-Glo cell growth inhibition assay, MDA-MB-453; type: cell-based; details: Homo sapiens, 72 h, luminal, HER2+, 3 days
Procedure: as §1, §2, §3

[6] = system: MDA-MB-231 breast tumor cell line; assay: CellTiter-Glo cell growth inhibition assay, MDA-MB-231; type: cell-based; details: Homo sapiens, 72 h, post EMT, HER normal, 3 days
Procedure: as §1, §2, §3

[7] = system: T47D breast tumor cell line; assay: CellTiter-Glo cell growth inhibition assay, T47D; type: cell-based; details: Homo sapiens, 72 h, luminal, HER normal, 3 days
Procedure: as §1, §2, §3

[8] = system: SCC15 head and neck squamous cell carcinoma line; assay: cells; details: Homo sapiens, SCC-15, 72 h, read-out: IC50 (cell growth inhibition)
Procedure: as §1, §2, §3

[9] = system: HN5C2 head and neck tumor cell line; assay: CellTiter-Glo cell growth inhibition assay, HN5C2; type: cell-based
EGFR and erbB2 kinases = details: Rusnak et al., 2001b, Xia et al., 2002; cited from earlier work

IC50 [2] [µM] | IC50 [3] [µM] | IC50 [4] [µM] | IC50 [5] [µM] | IC50 [1] [µM] | IC50 [8] [µM] | IC50 ([9]; 72 h) [µM] | SMILES | sensitivity of the cell line to the agent (in words) [1] | IC50 [6] [µM] | IC50 [7] [µM] | sensitivity of the cell line to the agent (in words) ([2]; JIMT-1) | sensitivity of the cell line to the agent (in words) ([4]; BT-474) | sensitivity of the cell line to the agent (in words) ([9]; HN5C2) | kinase inhibition in human xenograft studies (EGFR and erbB2 kinases)
 |  |  |  |  |  |  | COc1cc2ncnc(Nc3ccc(F)c(Cl)c3)c2cc1OCCCN1CCOCC1 [gefitinb] | resistant |  |  |  |  |  | 
0.4 | 6.64 | 10.1 | > 10 | > 10 | 0.06 |  | Cc1nc(Nc2ncc(C(=O)Nc3c(C)cccc3Cl)s2)cc(N2CCN(CCO)CC2)n1 [Dasatinib, N-(2-chloro-6-methylphenyl)-2-[[6-[4-(2-hydroxyethyl)-1-piperazinyl]-2-methyl-4-pyrimidinyl]amino]-5-thiazolecarboxamide,monohydrate] |  | 0.23 | 8.96 |  |  |  | 
14.7 | 0.22 | 0.09 | 4.79 | 10.9 |  | 9.78 | CS(=O)(=O)CCNCc1ccc(-c2ccc3ncnc(Nc4ccc(OCc5cccc(F)c5)c(Cl)c4)c3c2)o1 [Lapatinib, N-{3-chloro-4-[(3-fluorobenzyl)oxy]phenyl}-6-[5-({[2-(methanesulphonyl)ethyl]amino}methyl)-2-furyl]-4-quinazolinamine] | resistant | > 10 | > 10 | resistant | highly sensitive | resistant | dose-dependent kinase inhibition
 |  |  |  |  |  |  | CC(=O)O[C@H]1C(=O)[C@@]2(C)[C@H]([C@H](OC(=O)c3ccccc3)[C@]3(O)C[C@H](OC(=O)[C@H](O)[C@@H](NC(=O)c4ccccc4)c4ccccc4)C(C)=C1C3(C)C)[C@]1(OC(C)=O)CO[C@@H]1C[C@@H]2O [taxol] | retains sensitivity |  |  |  |  |  | 
